{
  "source": "paper PMC8429728",
  "about": "“TNK1 is a ubiquitin-binding and 14-3-3-regulated kinase that can be targeted to block tumor growth” (Nature Communications, 2021)",
  "assay_in_all_cases": "biochemical",
  "parameters_in_all_cases": "Reaction Biology 371-kinase panel at Km ATP, per cent enzyme activity relative to DMSO, single dose in duplicate",
  "settings_in_all_cases": "duplicate measurements, Km ATP",
  "key": {"BRK": {"molecular_target": "T1, BRK (Homo sapiens, UniProt Q13882)", "T1 construct": "gene PTK6", "T1 sequence (Q13882 whole entry)": "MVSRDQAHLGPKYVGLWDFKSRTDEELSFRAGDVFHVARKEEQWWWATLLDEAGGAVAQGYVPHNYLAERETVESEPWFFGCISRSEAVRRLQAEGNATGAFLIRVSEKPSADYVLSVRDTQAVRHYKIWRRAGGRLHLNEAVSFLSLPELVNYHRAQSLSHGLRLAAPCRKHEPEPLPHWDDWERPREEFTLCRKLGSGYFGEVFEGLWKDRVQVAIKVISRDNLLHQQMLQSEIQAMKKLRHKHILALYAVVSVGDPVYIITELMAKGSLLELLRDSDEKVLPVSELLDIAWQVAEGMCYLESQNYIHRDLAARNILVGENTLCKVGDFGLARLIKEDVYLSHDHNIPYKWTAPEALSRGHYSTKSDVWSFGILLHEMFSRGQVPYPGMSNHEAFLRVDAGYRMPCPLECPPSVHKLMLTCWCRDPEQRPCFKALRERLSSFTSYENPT", "in_short": "(§1)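 Compound screened at 300 nM in vitro across a 371-kinase panel. Enzyme activity expressed as % of DMSO controls. IC50 values came from sigmoidal variable-slope dose-response fits with the bottom fixed at 0.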"}, "CDK5/P25": {"molecular_target": "T2, CDK5/P25 (Homo sapiens, UniProt Q00535)", "T2 construct": "p25", "T2 sequence (Q00535 whole entry)": "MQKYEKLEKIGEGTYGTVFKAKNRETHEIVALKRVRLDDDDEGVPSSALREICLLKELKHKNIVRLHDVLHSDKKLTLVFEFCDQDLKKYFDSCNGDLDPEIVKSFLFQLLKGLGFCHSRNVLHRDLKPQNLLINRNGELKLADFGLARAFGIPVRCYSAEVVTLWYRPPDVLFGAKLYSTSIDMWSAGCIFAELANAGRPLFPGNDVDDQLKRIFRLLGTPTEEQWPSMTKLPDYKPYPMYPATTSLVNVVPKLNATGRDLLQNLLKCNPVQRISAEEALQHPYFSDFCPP", "T2 sequence (Q15078 whole entry partner)": "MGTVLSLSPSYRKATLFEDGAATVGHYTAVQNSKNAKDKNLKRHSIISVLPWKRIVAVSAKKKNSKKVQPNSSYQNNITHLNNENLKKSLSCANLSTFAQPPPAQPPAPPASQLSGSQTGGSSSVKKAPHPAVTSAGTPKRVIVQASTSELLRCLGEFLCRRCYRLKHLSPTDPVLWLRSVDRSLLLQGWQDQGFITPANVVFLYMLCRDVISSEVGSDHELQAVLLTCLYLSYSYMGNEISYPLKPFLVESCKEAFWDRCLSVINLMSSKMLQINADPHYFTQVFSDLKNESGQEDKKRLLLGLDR", "in_short": "as §1"}, "CHK2": {"molecular_target": "T3, CHK2 (Homo sapiens, UniProt O96017)", "T3 construct": "gene CHEK2", "T3 sequence (O96017 whole entry)": "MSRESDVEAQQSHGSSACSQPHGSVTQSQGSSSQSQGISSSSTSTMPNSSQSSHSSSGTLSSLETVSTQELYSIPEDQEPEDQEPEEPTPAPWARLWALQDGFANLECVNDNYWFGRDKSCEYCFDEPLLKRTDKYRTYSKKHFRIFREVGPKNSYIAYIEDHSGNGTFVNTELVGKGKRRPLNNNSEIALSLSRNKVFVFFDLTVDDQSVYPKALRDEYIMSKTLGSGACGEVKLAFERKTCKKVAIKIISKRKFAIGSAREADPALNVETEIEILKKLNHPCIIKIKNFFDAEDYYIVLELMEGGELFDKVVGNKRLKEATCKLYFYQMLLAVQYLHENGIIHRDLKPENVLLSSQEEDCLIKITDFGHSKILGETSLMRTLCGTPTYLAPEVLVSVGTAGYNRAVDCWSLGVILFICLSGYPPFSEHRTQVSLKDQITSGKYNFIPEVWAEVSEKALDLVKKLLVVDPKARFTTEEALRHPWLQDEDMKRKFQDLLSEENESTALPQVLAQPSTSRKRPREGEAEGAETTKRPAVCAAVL", "in_short": "as §1"}, "DDR1": {"molecular_target": "DDR1 (Homo sapiens, UniProt Q08345)", "in_short": "as §1"}, "DYRK4": {"molecular_target": "T4, DYRK4 (Homo sapiens, UniProt Q9NR20)", "T4 sequence (Q9NR20 1-520)": "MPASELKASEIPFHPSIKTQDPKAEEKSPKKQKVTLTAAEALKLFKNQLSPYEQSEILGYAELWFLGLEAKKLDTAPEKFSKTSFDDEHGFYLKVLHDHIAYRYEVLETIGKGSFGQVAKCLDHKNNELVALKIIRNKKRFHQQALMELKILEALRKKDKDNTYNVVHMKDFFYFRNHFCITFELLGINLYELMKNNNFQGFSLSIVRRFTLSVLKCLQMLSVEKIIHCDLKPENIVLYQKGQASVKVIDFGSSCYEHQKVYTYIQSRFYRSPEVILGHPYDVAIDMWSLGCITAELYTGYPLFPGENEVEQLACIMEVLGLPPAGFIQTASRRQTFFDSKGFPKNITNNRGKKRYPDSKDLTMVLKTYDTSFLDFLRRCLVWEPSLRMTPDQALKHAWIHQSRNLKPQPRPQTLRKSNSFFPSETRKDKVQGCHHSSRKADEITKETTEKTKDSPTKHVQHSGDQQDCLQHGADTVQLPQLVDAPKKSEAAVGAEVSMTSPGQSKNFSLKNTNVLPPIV", "in_short": "as §1"}, "EPHA7": {"molecular_target": "EPHA7 (Homo sapiens, UniProt Q15375)", "in_short": "as §1"}, "EPHB4": {"molecular_target": "EPHB4 (Homo sapiens, UniProt P54760)", "sequence (P54760 whole entry)": "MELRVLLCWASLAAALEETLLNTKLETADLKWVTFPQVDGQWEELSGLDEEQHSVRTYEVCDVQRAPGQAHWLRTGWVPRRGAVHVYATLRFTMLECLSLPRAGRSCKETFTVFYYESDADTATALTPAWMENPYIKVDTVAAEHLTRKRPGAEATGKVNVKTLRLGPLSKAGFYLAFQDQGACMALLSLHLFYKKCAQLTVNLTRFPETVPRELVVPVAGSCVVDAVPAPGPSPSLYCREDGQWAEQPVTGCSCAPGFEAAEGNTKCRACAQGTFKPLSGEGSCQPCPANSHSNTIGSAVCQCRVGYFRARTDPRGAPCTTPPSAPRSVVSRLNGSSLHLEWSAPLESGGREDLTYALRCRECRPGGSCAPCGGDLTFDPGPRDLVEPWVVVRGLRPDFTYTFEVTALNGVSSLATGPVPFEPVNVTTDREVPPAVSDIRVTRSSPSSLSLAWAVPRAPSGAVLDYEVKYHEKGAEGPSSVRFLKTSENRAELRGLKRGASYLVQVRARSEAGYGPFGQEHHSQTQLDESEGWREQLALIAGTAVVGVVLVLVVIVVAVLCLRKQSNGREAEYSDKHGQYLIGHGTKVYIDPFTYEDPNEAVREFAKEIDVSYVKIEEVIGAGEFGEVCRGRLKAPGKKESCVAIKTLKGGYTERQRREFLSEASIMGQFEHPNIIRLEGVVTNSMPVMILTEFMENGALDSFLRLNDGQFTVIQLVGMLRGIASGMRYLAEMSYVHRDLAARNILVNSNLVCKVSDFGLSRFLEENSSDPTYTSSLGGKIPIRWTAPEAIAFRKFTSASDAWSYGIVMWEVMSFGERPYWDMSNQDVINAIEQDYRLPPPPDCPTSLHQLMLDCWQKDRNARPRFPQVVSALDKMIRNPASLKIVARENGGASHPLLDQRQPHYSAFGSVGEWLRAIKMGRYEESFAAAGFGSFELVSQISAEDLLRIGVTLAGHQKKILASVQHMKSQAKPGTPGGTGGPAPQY", "in_short": "as §1"}, "IRAK1": {"molecular_target": "IRAK1 (Homo sapiens, UniProt P51617)", "in_short": "as §1"}, "MEK2": {"molecular_target": "T5, MEK2 (Homo sapiens, UniProt P36507)", "T5 construct": "gene MAP2K2", "in_short": "as §1"}, "MEK5": {"molecular_target": "T6, MEK5 (Homo sapiens, UniProt Q13163)", "T6 construct": "gene MAP2K5", "T6 sequence (Q13163 whole entry)": "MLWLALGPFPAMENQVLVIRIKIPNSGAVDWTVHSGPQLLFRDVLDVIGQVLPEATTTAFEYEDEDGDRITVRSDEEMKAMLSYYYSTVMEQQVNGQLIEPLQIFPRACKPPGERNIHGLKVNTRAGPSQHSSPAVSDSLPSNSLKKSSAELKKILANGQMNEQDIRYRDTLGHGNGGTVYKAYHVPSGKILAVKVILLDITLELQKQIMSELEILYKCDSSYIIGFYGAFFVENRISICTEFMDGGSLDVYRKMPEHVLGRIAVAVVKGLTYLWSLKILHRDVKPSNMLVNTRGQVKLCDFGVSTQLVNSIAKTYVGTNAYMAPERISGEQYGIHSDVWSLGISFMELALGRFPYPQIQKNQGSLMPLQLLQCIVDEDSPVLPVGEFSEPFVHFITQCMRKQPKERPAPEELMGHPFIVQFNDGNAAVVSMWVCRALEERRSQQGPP", "in_short": "as §1"}, "MEKK6": {"molecular_target": "T7, MEKK6 (Homo sapiens, UniProt O95382)", "T7 construct": "gene MAP3K6", "in_short": "as §1"}, "NEK11": {"molecular_target": "NEK11 (Homo sapiens, UniProt Q8NG66)", "sequence (Q8NG66 whole entry)": "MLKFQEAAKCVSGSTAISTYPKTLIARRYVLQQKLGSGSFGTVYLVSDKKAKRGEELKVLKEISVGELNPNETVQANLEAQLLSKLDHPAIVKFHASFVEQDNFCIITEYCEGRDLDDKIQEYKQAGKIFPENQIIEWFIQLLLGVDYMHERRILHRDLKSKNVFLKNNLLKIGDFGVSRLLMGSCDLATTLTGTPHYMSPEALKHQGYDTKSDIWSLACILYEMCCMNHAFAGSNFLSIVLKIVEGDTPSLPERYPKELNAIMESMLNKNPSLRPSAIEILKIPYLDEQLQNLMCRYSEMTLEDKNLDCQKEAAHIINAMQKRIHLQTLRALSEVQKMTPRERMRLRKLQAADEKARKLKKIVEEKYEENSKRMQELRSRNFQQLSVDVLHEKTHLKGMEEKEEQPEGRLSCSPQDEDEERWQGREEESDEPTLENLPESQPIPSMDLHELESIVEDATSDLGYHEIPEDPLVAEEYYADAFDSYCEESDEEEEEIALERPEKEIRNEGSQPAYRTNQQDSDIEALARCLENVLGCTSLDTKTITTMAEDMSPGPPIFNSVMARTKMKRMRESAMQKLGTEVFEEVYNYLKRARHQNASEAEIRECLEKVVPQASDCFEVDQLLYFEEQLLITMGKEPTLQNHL", "in_short": "as §1"}, "PAK3": {"molecular_target": "PAK3 (Homo sapiens, UniProt O75914)", "in_short": "as §1"}, "SGK3/SGKL": {"molecular_target": "SGK3/SGKL (Homo sapiens, UniProt Q96BR1)", "in_short": "as §1"}, "TTBK1": {"molecular_target": "TTBK1 (Homo sapiens, UniProt Q5TCY1)", "sequence (Q5TCY1 whole entry)": "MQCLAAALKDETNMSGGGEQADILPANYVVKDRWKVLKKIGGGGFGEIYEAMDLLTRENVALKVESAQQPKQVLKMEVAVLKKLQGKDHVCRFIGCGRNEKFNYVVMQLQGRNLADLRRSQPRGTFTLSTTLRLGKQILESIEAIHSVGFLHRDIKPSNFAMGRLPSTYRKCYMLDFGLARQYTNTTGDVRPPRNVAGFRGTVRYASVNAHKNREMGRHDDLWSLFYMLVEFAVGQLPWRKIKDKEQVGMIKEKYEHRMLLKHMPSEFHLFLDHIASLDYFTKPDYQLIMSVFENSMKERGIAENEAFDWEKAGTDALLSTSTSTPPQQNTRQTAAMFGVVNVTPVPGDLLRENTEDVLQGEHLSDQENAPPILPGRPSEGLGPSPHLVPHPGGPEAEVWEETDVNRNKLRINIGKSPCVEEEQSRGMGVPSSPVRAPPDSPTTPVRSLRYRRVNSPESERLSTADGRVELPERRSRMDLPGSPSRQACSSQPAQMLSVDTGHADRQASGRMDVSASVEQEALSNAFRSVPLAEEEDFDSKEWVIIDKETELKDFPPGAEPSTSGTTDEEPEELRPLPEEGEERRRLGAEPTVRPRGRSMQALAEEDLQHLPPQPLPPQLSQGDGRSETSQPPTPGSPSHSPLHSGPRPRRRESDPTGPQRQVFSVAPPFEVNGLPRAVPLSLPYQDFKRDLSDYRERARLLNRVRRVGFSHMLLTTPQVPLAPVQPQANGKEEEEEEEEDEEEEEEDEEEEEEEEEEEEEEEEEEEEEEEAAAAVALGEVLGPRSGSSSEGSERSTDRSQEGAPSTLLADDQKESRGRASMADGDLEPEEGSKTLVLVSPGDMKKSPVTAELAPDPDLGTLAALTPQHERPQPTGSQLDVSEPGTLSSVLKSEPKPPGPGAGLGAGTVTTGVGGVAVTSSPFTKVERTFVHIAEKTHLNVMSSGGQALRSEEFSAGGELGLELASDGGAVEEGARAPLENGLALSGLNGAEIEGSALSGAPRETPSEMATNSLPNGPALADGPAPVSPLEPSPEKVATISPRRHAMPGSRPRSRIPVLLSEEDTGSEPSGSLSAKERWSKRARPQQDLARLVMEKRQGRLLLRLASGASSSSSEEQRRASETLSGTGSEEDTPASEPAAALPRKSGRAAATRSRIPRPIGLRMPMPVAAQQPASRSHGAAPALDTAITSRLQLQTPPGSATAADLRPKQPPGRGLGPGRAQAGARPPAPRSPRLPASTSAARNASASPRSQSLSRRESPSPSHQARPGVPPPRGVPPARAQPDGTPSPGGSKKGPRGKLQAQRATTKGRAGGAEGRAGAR", "in_short": "as §1"}, "VRK1": {"molecular_target": "VRK1 (Homo sapiens, UniProt Q99986)", "in_short": "as §1"}, "[1]": {"settings": "read-out: % Enzyme Activity (relative to DMSO controls) / TP-0005801 (0.3µM) / Data 1"}, "[2]": {"settings": "read-out: % Enzyme Activity (relative to DMSO controls) / TP-0005801 (0.3µM) / Data 2"}},
  "note": "Like-named read-outs stand apart in the source and are kept apart here.",
  "data": [
    {"molecule": "COc1cc(N2CCN(C)CC2)c(C)cc1Nc1ncc(Br)c(Nc2cccnc2N(C)C)n1", "note": "[TP-5801]", "values": [
      {"measurement": "remaining activity at 0.3 µM", "setting": "BRK; [1]", "value": 78, "unit": "%"},
      {"measurement": "remaining activity at 0.3 µM", "setting": "BRK; [2]", "value": 76.5, "unit": "%"},
      {"measurement": "remaining activity at 0.3 µM", "setting": "CDK5/P25; [1]", "value": 123, "unit": "%"},
      {"measurement": "remaining activity at 0.3 µM", "setting": "CDK5/P25; [2]", "value": 115, "unit": "%"},
      {"measurement": "remaining activity at 0.3 µM", "setting": "CHK2; [1]", "value": 103, "unit": "%"},
      {"measurement": "remaining activity at 0.3 µM", "setting": "CHK2; [2]", "value": 102, "unit": "%"},
      {"measurement": "remaining activity at 0.3 µM", "setting": "DDR1; [1]", "value": 74.4, "unit": "%"},
      {"measurement": "remaining activity at 0.3 µM", "setting": "DDR1; [2]", "value": 74.1, "unit": "%"},
      {"measurement": "remaining activity at 0.3 µM", "setting": "DYRK4; [1]", "value": 104, "unit": "%"},
      {"measurement": "remaining activity at 0.3 µM", "setting": "DYRK4; [2]", "value": 99.2, "unit": "%"},
      {"measurement": "remaining activity at 0.3 µM", "setting": "EPHA7; [1]", "value": 95.2, "unit": "%"},
      {"measurement": "remaining activity at 0.3 µM", "setting": "EPHA7; [2]", "value": 94, "unit": "%"},
      {"measurement": "remaining activity at 0.3 µM", "setting": "EPHB4; [1]", "value": 103, "unit": "%"},
      {"measurement": "remaining activity at 0.3 µM", "setting": "EPHB4; [2]", "value": 102, "unit": "%"},
      {"measurement": "remaining activity at 0.3 µM", "setting": "IRAK1; [1]", "value": 87.2, "unit": "%"},
      {"measurement": "remaining activity at 0.3 µM", "setting": "IRAK1; [2]", "value": 83.4, "unit": "%"},
      {"measurement": "remaining activity at 0.3 µM", "setting": "MEK2; [1]", "value": 87.6, "unit": "%"},
      {"measurement": "remaining activity at 0.3 µM", "setting": "MEK2; [2]", "value": 87.4, "unit": "%"},
      {"measurement": "remaining activity at 0.3 µM", "setting": "MEK5; [1]", "value": 110, "unit": "%"},
      {"measurement": "remaining activity at 0.3 µM", "setting": "MEK5; [2]", "value": 108, "unit": "%"},
      {"measurement": "remaining activity at 0.3 µM", "setting": "MEKK6; [1]", "value": 95.3, "unit": "%"},
      {"measurement": "remaining activity at 0.3 µM", "setting": "MEKK6; [2]", "value": 95.2, "unit": "%"},
      {"measurement": "remaining activity at 0.3 µM", "setting": "NEK11; [1]", "value": 99.3, "unit": "%"},
      {"measurement": "remaining activity at 0.3 µM", "setting": "NEK11; [2]", "value": 94.5, "unit": "%"},
      {"measurement": "remaining activity at 0.3 µM", "setting": "PAK3; [1]", "value": 99, "unit": "%"},
      {"measurement": "remaining activity at 0.3 µM", "setting": "PAK3; [2]", "value": 97.9, "unit": "%"},
      {"measurement": "remaining activity at 0.3 µM", "setting": "SGK3/SGKL; [1]", "value": 108, "unit": "%"},
      {"measurement": "remaining activity at 0.3 µM", "setting": "SGK3/SGKL; [2]", "value": 105, "unit": "%"},
      {"measurement": "remaining activity at 0.3 µM", "setting": "TTBK1; [1]", "value": 97.2, "unit": "%"},
      {"measurement": "remaining activity at 0.3 µM", "setting": "TTBK1; [2]", "value": 94, "unit": "%"},
      {"measurement": "remaining activity at 0.3 µM", "setting": "VRK1; [1]", "value": 92.2, "unit": "%"},
      {"measurement": "remaining activity at 0.3 µM", "setting": "VRK1; [2]", "value": 91.6, "unit": "%"}
    ]}
  ]
}
